Source: patent US7250432B2, “Pharmaceutical compositions of diaryl-isoxazole derivatives for the prevention and treatment of cancers” (Korea Research Institute of Bioscience and Biotechnology, priority 2003, dated 2007)

Experiments:
[1] = tested on: breast cancer cell line (MDA-MB-231); assay: Analysis of cell migration (modified Boyden chamber); assay type: cell-based; details: for Cell migration inhibition rate / inhibition at 1 µM / inhibition at 10 µM: breast cancer cells, 18 hours; for inhibition at 1 µM / inhibition at 10 µM: read-out: Cell migration inhibition rate
Protocol: In order to investigate cell migration, modified Boyden chamber and 8 μm pore membrane were purchased from Neuro probe Co. and staining solution for cell staining, Giemsa solution, was purchased from Sigma Co. Other instruments used were CO2 incubator for cell culture, centrifuge for cell washing and inverted microscope (TE 300, Nikon, Japan) for observation.
Particularly, 90% grown up cells on a culture plate were isolated using trypsin/EDTA. The cells were treated with soybean trypsin inhibitor, and washed with serum free medium three times. Then, cell density was adjusted to 4×10^5 cells/ml. The compounds of Example 1-6 and a medium supplemented with 10% FBS were put by 30 μl each in a chamber well of the bottom of modified Boyden chamber, on which 8 μm pore membrane was put. Silicon gasket was placed over and finally a top plate was put on the gasket and fastened with a nut. The cultured cells were put in a well of top plate by 50 μl. The chamber was rapped and further cultured in a 37° C. 5% CO2 incubator for 18 hours.
18 hours later, the nut was taken out. Membrane was separated and fixed in methanol for 10 minutes, followed by drying in the air. After membrane was completely dried, it was stained in Giemsa solution for 90 minutes. At that time, the staining solution was diluted with distilled water at the ratio of 1:10 before use. Upon competing staining, the membrane was dipped in distilled water for about 10 seconds for washing. The membrane was put on a cover slip with a part having cells not shifted heading up and scrubbed with a cotton swab carefully. Manicure was put on the edge of the cover slip, which was then fixed well on a slide glass. The number of migrated cells on the sample prepared above was investigated under inverted microscope.
Cell migration inhibition rate (%)=100−[Number of migrated cells treated with test samples/Number of migrated cells of control]×100
For a control group, only 1% dimethyl sulfoxide […]) was added instead of a compound of the present invention.

HUVEC = assay: in vitro endothelial morphogenesis assay (tube formation); assay type: cell-based, human
Protocol: Angiogenesis inhibition activity of the compound of the present invention was investigated by in vitro endothelial morphogenesis assay using human originated cell line HUVEC.
24-well cell culture plate and matrigel matrix were purchased from BD biosciences Co. Other instruments used for the experiments were CO2 incubator for cell culture and inverted microscope (TE 300, Nikon, Japan) equipped with a digital camera for observation and confirmation of the result.
Particularly, starvation of HUVECs on a serum free medium was performed for overnight. Each well of 24-well cell culture plate was coated with 0.2 Ml of matrigel matrix, which was cultured in a 37° C. incubator for 1 hour. 0.2 Ml of cell culture solution with the cell density of 20000 was put in each well, which was further cultured in a CO2 incubator for 30 minutes. Then, a fresh medium, which was diluted with different concentrations of the compounds of Example 1-6, was given to each well. 1% serum was added to the wells, followed by further culture for 24 hours. Tube formation by HUVECs is observed. In this invention, inhibition of tube formation by the compound of the present invention was observed under inverted microscope, and the results were shown in FIG. 2 and FIG. 3. […]

zebrafish = assay: Angiogenesis inhibition in zebrafish embryos (subintestinal vessels); assay type: in vivo; details: FIG. 4
Protocol: Experimental instruments used for the invention were temperature-controlled incubator for the incubation of embryo and inverted microscope (TE 300, Nikon, Japan) equipped with a digital camera for observation and confirmation for the results.
Embryos of zebrafish were loaded on a 96-well plate by three embryos per well. The embryos were confirmed to be synchronized embryos which means one day has passed after development. The compounds of the present invention were dissolved in 0.1% DMSO to prepare different concentrations for each compound. Each compound was treated to 4 wells and inhibition of subintestinal vessels (SIVs) in 12 embryos was investigated. To prepare a control, 8 wells were treated with 0.1% DMSO (in embryo water: 0.2 g/l instant ocean salt) (Randall T. Peterson, et al, Proc. Natl. Aced. Sci. USA, 2000, 97: 12965).
For the observation of angiogenic vessels (SIVs), an rmmunological approach of Catherine E. Willet, et al. (Catherine E. Willet, et al., Angiogenesis, 1999, 3: 353), was used in the present invention. Particularly, three days after development, an embryo was fixed in 4% paraformaldehyde at room temperature for 2 hours. The embryo was washed twice with PBS, and dehydrated step by step with PBS, 25%, 50%, 75% and 100% methanol. Then, the embryo was rehydrated step by step with 100%, 75%, 50% and 25% methanol and PBS. […]

[2] = Acute oral toxicity test in rats; assay type: in vivo
Protocol: 6-week old SPF (specific pathogen-free) SD line rats were used in the acute toxicity test. Compound 1 of the present invention was suspended in 0.5% methylcellulose solution and orally administered once to 2 rats per group. Death, clinical symptoms, and weight change in rats were observed, hematological tests and biochemical tests of blood were performed, and any abnormal signs in the gastrointestinal organs of chest and abdomen were checked with eyes during autopsy.

[3] = Homo sapiens, MDA-MB-231, 10 uM

Compound: 5-(2,4-dimethoxy-5-ethylphenyl)-4-(4-bromophenyl)isoxazole [Example 2]
- Cell migration inhibition rate ([1]; 1 uM): 90.80%
- Cell migration inhibition rate ([1]; 10 uM): 94.80%

Compound: CCc1cc(-c2oncc2-c2ccc(OC)cc2)c(O)cc1OC [Example 1, 5-(5-ethyl-2-hydroxy-4-methoxyphenyl)-4-(4-methoxyphenyl)isoxazole]
- inhibition at 1 µM ([1]; Homo sapiens, MDA-MB-231, 1 uM): 92.3%
- inhibition at 10 µM [1, 3]: 94.5%
- inhibition at 0.05 µM ([1]; Homo sapiens, 50 nM, MDA-MB-231, FIG. 1): ≤ 50%
- inhibition of tube formation in vascular endothelial cells (HUVEC; 0.01 μM, FIG. 2): already detected
- inhibition of tube formation in vascular endothelial cells (HUVEC; 1 μM, FIG. 3): inhibited tube formation
- inhibition of angiogenesis in zebrafish (zebrafish; 0.5 μM): inhibited angiogenesis
- inhibition at 0.5 µM (zebrafish; Danio rerio, 500 nM): ≤ 50%
- LD50 ([2]; SD, rat, in vivo, rats, oral, read-out: estimated LD50): > 1500 mg/kg
- clinical symptoms, weight change, death ([2]; rat, in vivo, po): did not cause any specific clinical symptoms, weight change, or death
- hematological tests, biochemical tests of blood, autopsy ([2]; rat, in vivo, po): No change was observed
- level up to which no toxic change was caused ([2]; rats, single oral administration): ≤ 1000 mg/kg

Compound: CCc1cc(-c2oncc2-c2ccc(OC)cc2)c(OC)cc1OC [Example 3, 5-(2,4-dimethoxy-5-ethylphenyl)-4-(4-methoxyphenyl)isoxazole]
- inhibition at 1 µM ([1]; Homo sapiens, MDA-MB-231, 1 uM): 68.4%
- inhibition at 10 µM [1, 3]: 82.5%

Compound: CCc1cc(-c2oncc2-c2ccc(OC)cc2)c(OCc2ccccc2)cc1OC [Example 4, 5-(2-benzyloxy-5-ethyl-4-methoxyphenyl)-4-(4-methoxyphenyl)isoxazole]
- inhibition at 1 µM ([1]; Homo sapiens, MDA-MB-231, 1 uM): 54.6%
- inhibition at 10 µM [1, 3]: 70.1%

Compound: CCc1cc(-c2oncc2-c2ccc(O)cc2)c(O)cc1OC [Example 5, 5-(5-ethyl-2-hydroxy-4-methoxyphenyl)-4-(4-hydroxyphenyl)isoxazole]
- inhibition at 1 µM ([1]; Homo sapiens, MDA-MB-231, 1 uM): 43.5%
- inhibition at 10 µM [1, 3]: 43.3%

Compound: CCc1cc(-c2oncc2-c2ccc(O)cc2)c(O)cc1O [Example 6, 5-(2,4-dihydroxy-5-ethylphenyl)-4-(4-hydroxyphenyl)isoxazole]
- inhibition at 1 µM ([1]; Homo sapiens, MDA-MB-231, 1 uM): 79.5%
- inhibition at 10 µM [1, 3]: 79.4%
